Experiment [1] in a line: Electron donation by pre-illuminated LEAT protein (NAD+/NADP+ reduction). The format is biochemical. On the procedure: FIG. 1. The effects of light on NAD^+ or NAPD^+ reduction by YFP.
It was reported that proteins such as GFP can function as electron donor to reduce the oxidized small compounds such as NAD^+, potassium ferricyanide, and some proteins such as cytochrome c, and FAD-containing proteins (Bogdanov A. M. et al, 2009, Nature Chemical Biology. 5:459-461), The invertors used E. coli to express and purify recombinant proteins. […] Quinone reduction under light was analyzed by monitoring the decrease of absorption at 436 nm.

A short description of experiment [2]: In vitro H2O hydrolysis and oxygen evolution catalyzed by LEAT protein under light. The class given is biochemical. The settings on record: for O2 evolution activity: water hydrolysis and O2 evolution under light, relative to YFP. More on the design: key to O2 evolution activity: +: similar O2 evolution activity as that of YFP; ++: higher O2 evolution activity than that of YFP by at least one order of magnitude; weak: lower activity than that of YFP by at least one order of magnitude. On the procedure: 1.85 ml of 50 mM phosphate buffer (pH6.5) was added in the reaction vessel of Clark-type oxygen electrode, then LEAT proteins (at a final concentration of 0.02-1 μg/ml) and 400 μM 2,3,5-trimethyl-1,4-benzoquinone (TMBQ) or other quinones were sequentially added into the buffer in dark. The oxygen evolution rate was measured under the light with corresponding excitation wave length for LEAT proteins and light intensity at 1-2 μmol m^−2 s^−1.

A further experiment deals with Brassica. Nature of the experiment: Growth, biomass and yield of transgenic Brassica. The note with it: T1 transgenic Brassica, vegetative stage. The format is in vivo, Brassica napus L. The source says: FIG. 14. (A) WT, empty vector control (pHB) and mCherry transgenic Brassica (L1-L3) were germinated and grown for one week in the phytotron under white light (PPFD:250 μmol m^−2s^−1). Then the plants were moved and grown under white light, green light (PFD: 60 μmol m^−2s^−1) or red+blue light (red light PFD; 60 μmol m^−2s^−1, blue light PFD; 10 μmol m^−2s^−1) for another 3 weeks and photos were taken, (B) Comparison of the fresh weights and dry weights of WT and mCherry transgenic Brassica grown under white light, green light or red+blue light for four weeks. Values in the figures are means±SD, for WT, n=10, for transgenic plant transformed with empty vector control pHB and mCherry, data were the averages of three independent lines and 10 plants for each line. **p≦0.01. (C) Net photosynthetic rate of WT and mCherry transgenic Brassica measured under different light qualities. Nine-week-old WT and mCherry transgenic Brassica grown in the phytotron (PPFD: 250 μmol m^−2s^−1) were transferred and treated with different qualities of light for 4 days and net photosynthetic rate was measured. (D) Net photosynthetic rate of WT and mCherry transgenic Brassica grow in the natural field measured under different PPFD as light source. Net photosynthetic rate was measured in situ between 10:00 am and 12:00 pm. […] FIG. 15. (A) Measurement of the fresh weight and dry weight per plant of 7-week-old WT and mCherry transgenic Brassica plants grown in the natural field conditions. Values in the figures are means±SD, n=10. *p≦0.05, **p≦0.01. (B) Comparison of the plant size, silique size, seed size, grain yield per plant and 1000-seed weight at the harvesting time. Values in the figures are means±SD, n=10. *p≦0.05, **p≦0.01. Wild type (WT), transgenic Brassica with empty vector (pHB) and mCherry transgenic Brassica (L1-L3) were germinated in the phytotron under white light (light intensity: 250 μmol m^−2s^−1) for 1 week. Then the plants were transferred and continued to grow under white light, green light (light intensity: 60 μmol m^−2s^−1), red+blue light (intensity of red light: 60 μmol m^−2s^−1; intensity of blue light: 10 μmol m^−2s^−1). The […] were taken three weeks after transfer.

With “YFP: yellow fluorescent protein, amino acid sequence SEQ ID NO: 8”, the “function as electron donor under light” value in experiment [1] is on record as “cannot continuously provide electrons under light”. Moreover, the “water photohydrolysis and O2 evolution activity under light” value in experiment [2] (TMBQ substituted with DQ or UQ) was “does not have water photohydrolysis and O2 evolution activity”. The “activity of water hydrolysis among the quinones tested (order)” value in experiment [2] (different quinones, under light) is “TMBQ>DMBQ2>MBQ>DMBQ1”. In experiment [2], the O2 evolution activity entry was “+”.

As to “eqFP611: fluorescent protein from Entacmaea quadricolor (AY130757), SEQ ID NO: 30”, the O2 evolution activity result in experiment [2] was “+”. For “mCherrymu5: mCherry mutant S151C S152C H166N K167M I202A, SEQ ID NO: 26”, in the experiment on Brassica, the “plant growth vs WT” value was “grow better than WT”. In the case of “mCherrymu4: mCherry mutant S151C S152C K167M I202A, SEQ ID NO: 24”, the “plant growth vs WT” value in the experiment on Brassica is listed as “grow better than WT”. “mCherrymu3: mCherry mutant S151C S152C K167M, SEQ ID NO: 22”: the “plant growth vs WT” value in the experiment on Brassica was “grow better than WT”. Besides, the “O2 evolution rate, increase” value in experiment [2] (vs non-mutated protein, under light) worked out at 6 folds.

Source of the values: patent US20170037425A1, “METHOD FOR IMPROVING PLANT TRAIT” (SHANGHAI INSTITUTES FOR BIOLOGICAL SCIENCES, CHINESE …, priority 2012, published 2017).
